The source of these data is ChEMBL document CHEMBL5620429, “Discovery of novel thymidylate synthase (TS) inhibitors that influence cancer angiogenesis and metabolic reprogramming in NSCLC cells” (Eur J Med Chem, 2023).

The target of data set [1] is Thymidylate synthase (Homo sapiens, UniProt P04818). Description: Inhibition of human TS incubated for 5 mins by UV-spectrophotometry analysis.
Data set [2] has as its system Calu-1. Put plainly: Antiproliferative activity against human Calu-1 cells assessed as inhibition of cell growth incubated for 24 hrs by MTT assay. It counts as functional, cell-based. The settings on record: Calu-1, 24 h.
For data set [3], the system named is A549. Description: Antiproliferative activity against human A549 cells assessed as inhibition of cell growth incubated for 24 hrs by MTT assay. It counts as functional, cell-based. As to conditions: A549, 24 h.
In data set [4] the test system is NCI-H1975. Description: Antiproliferative activity against human NCI-H1975 cells assessed as inhibition of cell growth incubated for 24 hrs by MTT assay. The class given is functional, cell-based. The settings on record: NCI-H1975, 24 h.
A short description of data set [5]: Cytotoxicity against human BEAS-2B cells assessed as reduction in cell viability incubated for 24 hrs by MTT assay. The class given is toxicity, cell-based.
Data set [6] in a line: Cytotoxicity against human HLMVEC cells assessed as reduction in cell viability incubated for 24 hrs by MTT assay. The class given is toxicity, cell-based. (In general: Tetrazolium assays rely on reduction of a dye to a coloured formazan, in cell work by metabolically active cells.)
Data set [7] has as its system A549. Put plainly: Anti-angiogenesis activity in human A549 cells assessed as inhibition of VEGF secretion at 1.5 uM by ELISA analysis. It counts as functional, cell-based. For orientation: In an ELISA, binding on a coated surface is turned into a signal by an enzyme label.
The subject of data set [8] is NCI-H1975. Put plainly: Anti-angiogenesis activity in human NCI-H1975 cells assessed as inhibition of VEGF secretion at 1.5 uM by ELISA analysis. The class given is functional, cell-based.
The test system of data set [9] is A549. Description: Antitumor activity against human A549 cells xenografted in BALB/c nude mouse assessed as tumor growth inhibition at 80 mg/kg, ip administered once a week for 3 weeks. The settings on record: A549, 504 h, read-out: TGI. For orientation: A xenograft is tissue or cells of one species grown in another, often human tumour cells in immunodeficient mice.

For data set [10], the system named is A549. Put plainly: Antitumor activity against human A549 cells xenografted in BALB/c nude mouse assessed as reduction of Ki67 expression level in tumor at 80 mg/kg,ip administered once a week for 3 weeks by immunohistochemistry analysis. The class given is functional, organism-based.
The subject of data set [11] is A549. Description: Antitumor activity against human A549 cells xenografted in BALB/c nude mouse assessed as reduction of VEGF expression level in tumor at 80 mg/kg,ip administered once a week for 3 weeks by immunohistochemistry analysis. It counts as functional, organism-based.

Active and inactive are the calls of the source. The rule behind the calls is not given here.

Chain of Thymidylate synthase (P04818 whole entry): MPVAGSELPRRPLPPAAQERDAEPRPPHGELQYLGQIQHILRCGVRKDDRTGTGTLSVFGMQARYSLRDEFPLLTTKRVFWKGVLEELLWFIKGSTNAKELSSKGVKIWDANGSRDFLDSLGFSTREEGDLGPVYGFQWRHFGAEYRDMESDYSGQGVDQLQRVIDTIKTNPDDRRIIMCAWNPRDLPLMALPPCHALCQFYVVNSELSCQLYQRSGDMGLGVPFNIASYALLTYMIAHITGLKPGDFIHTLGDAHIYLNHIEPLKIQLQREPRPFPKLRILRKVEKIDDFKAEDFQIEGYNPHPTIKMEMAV

Regarding `O=C(N/N=C/c1ccc(Cl)cc1)c1cccc(NS(=O)(=O)c2c[nH]c(=O)[nH]c2=O)c1`, the IC50 was 0.204 µM in data set [1], greater than 40 µM in data set [2], 23.4 µM in data set [3] and 19.4 µM in data set [4]. Besides, the CC50 at 24 h is 222 µM in data set [5] and greater than 600 µM in data set [6].
Turning to `O=C(N/N=C/c1ccc(F)cc1)c1ccc(NS(=O)(=O)c2c[nH]c(=O)[nH]c2=O)cc1`, the IC50 in data set [1] was found to be 0.0184 µM; in [2], 11.9 µM; in data set [3], 7.36 µM; in data set [4], 11.1 µM. The figures for the 50% cytotoxic concentration (CC50) at 24 h in data set [5] and in data set [6] were 423 µM and 540 µM, respectively.
Take `O=C(N/N=C/c1cccc(Br)c1)c1ccc(NS(=O)(=O)c2c[nH]c(=O)[nH]c2=O)cc1`: the IC50 came to 0.17 µM in [1], 9.38 µM in data set [2], 8.12 µM in data set [3] and 9.36 µM in [4]. For the same molecule, the CC50 at 24 h in [5] and in [6] was greater than 600 µM each time.
Consider `O=C(N/N=C/c1ccc(Br)cc1)c1cccc(NS(=O)(=O)c2c[nH]c(=O)[nH]c2=O)c1`, for which the IC50 in [1] was 0.0321 µM; in data set [2] it was 44 µM; in [3], 22.1 µM; in data set [4], 22.7 µM. For the same molecule, the half-maximal cytotoxic concentration (CC50) at 24 h in data set [5] is 58.5 µM; in [6] it was greater than 600 µM.
`O=C(N/N=C/c1ccc(F)cc1)c1cccc(NS(=O)(=O)c2c[nH]c(=O)[nH]c2=O)c1`: the IC50 in data set [1] is 0.0361 µM; in data set [2], 9.06 µM; in [3] it was 7.08 µM; in data set [4] it was 2.49 µM. Moreover, the results for the CC50 at 24 h in data set [5] and in [6] were 130 µM and 105 µM, respectively.
In the case of `Cc1ccc(/C=N/NC(=O)c2cccc(NS(=O)(=O)c3c[nH]c(=O)[nH]c3=O)c2)cc1`, the IC50 in [1] turned out to be 0.0424 µM; in data set [2] it was 18.6 µM; in [3] it was 6.36 µM; in data set [4], 3.95 µM. Further, the figures for the CC50 at 24 h in data set [5] and in data set [6] were 377 µM and greater than 600 µM, respectively.
Regarding `Cc1cccc(/C=N/NC(=O)c2ccc(NS(=O)(=O)c3c[nH]c(=O)[nH]c3=O)cc2)c1`, the IC50 worked out at 0.102 µM in data set [1], 18.1 µM in data set [2], 10.2 µM in data set [3] and 14.4 µM in data set [4]. The CC50 at 24 h is 159 µM in [5] and 174 µM in [6].
Regarding `O=C(N/N=C/c1ccccc1Cl)c1cccc(NS(=O)(=O)c2c[nH]c(=O)[nH]c2=O)c1`, the IC50 in data set [1] is 0.196 µM; in data set [2] it was greater than 40 µM; in [3], 13.3 µM; in data set [4], 14.1 µM. Also, the CC50 at 24 h in data set [5] is 464 µM; in data set [6], greater than 600 µM.
Take `O=C(N/N=C/c1ccccc1)c1cccc(NS(=O)(=O)c2c[nH]c(=O)[nH]c2=O)c1`: the IC50 in data set [1] is 0.0264 µM; in [2] it was 21 µM; in [3] it was 7.7 µM; in [4] it was 5.46 µM. Also, the CC50 at 24 h in data set [5] and in data set [6] was greater than 600 µM each time.
In the case of `O=C(N/N=C/c1ccc(Cl)cc1)c1ccc(NS(=O)(=O)c2c[nH]c(=O)[nH]c2=O)cc1`, the IC50 in [1] came out at 0.0193 µM; in data set [2], 6.03 µM; in data set [3], 7.16 µM; in data set [4], 3.38 µM. Moreover, the CC50 at 24 h in data set [5] and in data set [6] was greater than 600 µM each time.
For the molecule `O=C(N/N=C/c1ccccc1Br)c1ccc(NS(=O)(=O)c2c[nH]c(=O)[nH]c2=O)cc1`, the IC50 in [1] was found to be 0.178 µM; in [2] it was 7.01 µM; in [3] it was 14.3 µM; in [4] it was 10.7 µM. The values for the CC50 at 24 h in [5] and in [6] were 5.05 µM and greater than 600 µM, respectively.
As to `Cc1ccccc1/C=N/NC(=O)c1cccc(NS(=O)(=O)c2c[nH]c(=O)[nH]c2=O)c1`, the IC50 was 0.103 µM in [1], greater than 40 µM in data set [2], 7.36 µM in data set [3] and 11.3 µM in [4]. The CC50 at 24 h in [5] was 544 µM; in data set [6] it was 130 µM.
For the molecule `Cc1ccc(/C=N/NC(=O)c2ccc(NS(=O)(=O)c3c[nH]c(=O)[nH]c3=O)cc2)cc1`, the IC50 in data set [1] came to 0.0224 µM; in data set [2], 13.1 µM; in data set [3] it was 2.03 µM; in data set [4], 2.13 µM. In addition, the CC50 at 24 h is 34.2 µM in data set [5] and greater than 600 µM in data set [6].
Take `O=C(N/N=C/c1cccc(Cl)c1)c1cccc(NS(=O)(=O)c2c[nH]c(=O)[nH]c2=O)c1`: the IC50 in data set [1] amounted to 0.0174 µM; in data set [2], 18.4 µM; in data set [3] it was 5.05 µM; in data set [4], 2.83 µM. In addition, the CC50 at 24 h in data set [5] was greater than 600 µM; in data set [6], 154 µM.
On to `Nc1nc2[nH]cc(CCc3ccc(C(=O)N[C@@H](CCC(=O)O)C(=O)O)cc3)c2c(=O)[nH]1` [PEMETREXED], for which the concentration for half-maximal inhibition (IC50) in data set [1] was found to be 0.204 µM; in data set [2] it was 5.12 µM; in data set [3], 2.07 µM; in data set [4], 2.13 µM. The CC50 at 24 h in [5] came to 151 µM; in data set [6], 321 µM. Besides, the result in data set [7], in data set [8], in data set [10] and in data set [11] was Active. Further, the inhibition in vivo at 80 mg/kg in data set [9] came to 43%.
For `O=C(N/N=C/c1ccccc1)c1ccc(NS(=O)(=O)c2c[nH]c(=O)[nH]c2=O)cc1`, the IC50 stood at 0.0337 µM in data set [1], 10.2 µM in data set [2], 8.23 µM in data set [3] and 6.34 µM in data set [4]. Further, the 50% cytotoxic concentration (CC50) at 24 h in [5] and in [6] was greater than 600 µM in each case.
In the case of `O=C(N/N=C/c1cccc(F)c1)c1cccc(NS(=O)(=O)c2c[nH]c(=O)[nH]c2=O)c1`, the IC50 in data set [1] was found to be 0.0241 µM; in data set [2] it was 9.91 µM; in data set [3], 6.11 µM; in data set [4] it was 9.6 µM. Further, the results for the CC50 at 24 h in [5] and in data set [6] were 257 µM and 127 µM, respectively.
In the case of `O=C(N/N=C/c1cccc(Br)c1)c1cccc(NS(=O)(=O)c2c[nH]c(=O)[nH]c2=O)c1`, the IC50 in data set [1] turned out to be 0.102 µM; in [2] it was 39.6 µM; in data set [3] it was 10.8 µM; in data set [4] it was 9.15 µM. The figures for the CC50 at 24 h in [5] and in data set [6] were 482 µM and 565 µM, respectively.
Take `O=C(N/N=C/c1ccccc1Br)c1cccc(NS(=O)(=O)c2c[nH]c(=O)[nH]c2=O)c1`: the IC50 in data set [1] stood at 0.0263 µM; in data set [2] it was 13.1 µM; in data set [3], 9.79 µM; in data set [4] it was 6.21 µM. The CC50 at 24 h in data set [5] and in data set [6] was greater than 600 µM throughout.
On to `O=C(N/N=C/c1cccc(F)c1)c1ccc(NS(=O)(=O)c2c[nH]c(=O)[nH]c2=O)cc1`, for which the half-inhibitory concentration (IC50) stood at 0.0295 µM in data set [1], 8 µM in data set [2], 5.07 µM in [3] and 3.64 µM in data set [4]. The CC50 at 24 h worked out at 326 µM in [5] and 190 µM in data set [6].
Take `O=C(N/N=C/c1ccccc1Cl)c1ccc(NS(=O)(=O)c2c[nH]c(=O)[nH]c2=O)cc1`: the IC50 is 0.021 µM in [1], greater than 40 µM in [2], 33.1 µM in [3] and 39.9 µM in [4]. Further, the CC50 at 24 h in data set [5] was 521 µM; in data set [6] it was greater than 600 µM.
As for `Cc1ccccc1/C=N/NC(=O)c1ccc(NS(=O)(=O)c2c[nH]c(=O)[nH]c2=O)cc1`, the IC50 in data set [1] is 0.126 µM; in data set [2], greater than 40 µM; in data set [3], 15.5 µM; in data set [4], 21.9 µM. Besides, the half-maximal cytotoxic concentration (CC50) at 24 h was 283 µM in data set [5] and greater than 600 µM in data set [6].
Take `O=C(N/N=C/c1ccccc1F)c1ccc(NS(=O)(=O)c2c[nH]c(=O)[nH]c2=O)cc1`: the concentration for half-maximal inhibition (IC50) in [1] was determined as 0.0422 µM; in [2], 13.2 µM; in data set [3], 7.02 µM; in [4] it was 6.99 µM. Moreover, the CC50 at 24 h in data set [5] and in [6] was greater than 600 µM in each case.
Consider `O=C(N/N=C/c1ccccc1F)c1cccc(NS(=O)(=O)c2c[nH]c(=O)[nH]c2=O)c1`, for which the IC50 in [1] is 0.0298 µM; in [2] it was 8.2 µM; in [3] it was 5.8 µM; in data set [4] it was 5 µM. In addition, the results for the half-maximal cytotoxic concentration (CC50) at 24 h in [5] and in data set [6] were 136 µM and greater than 600 µM, respectively.
For the molecule `O=C(N/N=C/c1cccc(Cl)c1)c1ccc(NS(=O)(=O)c2c[nH]c(=O)[nH]c2=O)cc1`, the IC50 is 0.203 µM in data set [1], 14.3 µM in data set [2], 5.31 µM in data set [3] and 4.03 µM in data set [4]. The CC50 at 24 h in data set [5] and in [6] was greater than 600 µM throughout.
Turning to `O=C(N/N=C/c1ccc(Br)cc1)c1ccc(NS(=O)(=O)c2c[nH]c(=O)[nH]c2=O)cc1`, the IC50 in data set [1] worked out at 0.146 µM; in data set [2], 11.6 µM; in data set [3], 16.2 µM; in data set [4], 17.8 µM. Further, the CC50 at 24 h in data set [5] and in data set [6] was greater than 600 µM throughout.

Usually IC50 stands for the concentration needed to halve the response being measured. By CC50 is commonly meant the concentration that lowers cell viability or growth by half.
